Laboratory results published in patent publication US20250163057A1, “DCN-1 MODULATING COMPOUNDS AND METHODS OF USE THEREOF” (Cellarity, Inc., priority 2023, published 2025).
Like-named read-outs stand apart in the source and are kept apart here.

Tests used:
[1] = target: DCN1 protein (Homo sapiens (Human), UniProt Q96GG9); assay: Intact Protein MS Analysis with the RapidFire-TOF System (covalent adduct formation); assay type: binding; settings: MS Emax; 400 nM DCN1, 3 hours at room temperature
How it was run: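 Tag-cleaved human DCN1 (400 nM) expressed in E. coli, in 25 mM Tris-HCl, 200 mM NaCl, 1 mM DTT, was incubated with 11 compound concentrations for 3 h at room temperature and quenched with 0.2% formic acid. Intact-protein Q-TOF MS with deconvolution detected the compound adduct mass.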

[2] = target: T1, DCN1 (DCUND1) protein PONY domain (Homo sapiens (Human), UniProt Q96GG9); assay: Off-rate measurement of reversible covalent molecules (jump dilution TR-FRET with Cy5 probe); assay type: binding; settings: for Category: binding mode category from off-rate assay; for residence time: inverse of rate constant K; for residence time / half-life: jump dilution TR-FRET; for koff: jump dilution, Cy5 covalent probe 150 nM, TR-FRET; for half-life: ln(2)/K
[3] = target: T1, DCN1 (DCUND1) protein PONY domain; assay: TR-FRET assay, DCN1 binding with FAM-labeled probe
How it was run: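 First, the E. coli-derived PONY domain was biotinylated and paired with streptavidin Tb cryptate. Compounds in 0.1% DMSO were then added to DCN1 and FAM-probe (5 nM/20 nM, or 0.31 nM/900 nM total with 800 nM unlabelled) in TritonX, 200 mM NaCl buffer. Finally, TR-FRET ratios were recorded at 1, 5 and 24 hrs.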

[4] = 24 hr after treatment with compound, read-out: TR FRET IC50 24 hr
[5] = read-out: TR FRET IC50 1 hr, 1 hr after treatment with compound
[6] = TR FRET IC50 1 hr (nM), 1 hr after treatment with compound

T1 sequence (Q96GG9 60-248): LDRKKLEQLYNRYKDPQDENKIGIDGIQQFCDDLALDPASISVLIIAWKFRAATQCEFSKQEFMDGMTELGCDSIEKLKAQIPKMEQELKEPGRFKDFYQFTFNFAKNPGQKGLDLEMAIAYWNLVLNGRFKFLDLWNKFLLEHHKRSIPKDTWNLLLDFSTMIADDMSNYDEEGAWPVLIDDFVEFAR
DCN1 protein, sequence (Q96GG9 whole entry): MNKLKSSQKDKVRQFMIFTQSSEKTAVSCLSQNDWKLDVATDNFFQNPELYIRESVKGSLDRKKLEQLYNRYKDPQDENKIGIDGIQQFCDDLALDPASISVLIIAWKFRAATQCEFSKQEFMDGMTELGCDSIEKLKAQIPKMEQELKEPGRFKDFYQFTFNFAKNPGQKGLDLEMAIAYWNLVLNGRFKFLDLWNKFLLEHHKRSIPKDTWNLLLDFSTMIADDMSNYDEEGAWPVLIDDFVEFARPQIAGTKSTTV

How did the “% Adduct Formation” value [1] turn out when CCN1C(=O)[C@@H](NC(=O)c2cccc(C(F)(F)F)c2)[C@@H](c2ccc(F)cc2)c2c(C(=O)N3CCC[C@H]3C#N)nn(-c3ccccc3)c21 (mixture of isomers) [Compound I-34] was run?
The value was “+++ (MS Emax % adduct formation greater than 80.0 and less than or equal to 100.0)”.

CCN1C(=O)[C@@H](NC(=O)c2cccc(C(F)(F)F)c2)[C@@H](C2CC2)c2c(C(=O)N3CCS(=O)(=O)C[C@H]3C#N)nn(C3CCOCC3)c21 (mixture of isomers) [Compound I-379] was tested. Which Category [2] did it give?
Its Category is “reversible covalent”.

And the residence time [2]?
The residence time was 78.9 min.

And the koff [2]?
Its koff is 0.000211 s⁻¹.

What about the half-life [2] of the same compound?
The half-life was 0.9115 h.

What about the “% Adduct Formation” value [1] of the same compound?
Its value is “+++ (MS Emax % adduct formation greater than 80.0 and less than or equal to 100.0)”.

And the IC50 [3, 4]?
The IC50 was no more than 200 nM.

And the IC50 [3, 5]?
The IC50 was no more than 200 nM.

With CCN1C(=O)[C@@H](NC(=O)c2cccc(C(F)(F)F)c2)[C@@H](c2ccc(F)cc2)c2c(C(=O)N3CS(=O)(=O)C[C@H]3C#N)nn(C3CCOCC3)c21 (mixture of isomers) [Compound I-661, N-((4S,5S)-3-(4-cyano-1,1-dioxidothiazolidine-3-carbonyl)-7-ethyl-4-(4-fluorophenyl)-6-oxo-1-(tetrahydro-2H-pyran-4-yl)-4,5,6,7-tetrahydro-1H-pyrazolo[3,4-b]pyridin-5-yl)-3-(trifluoromethyl)benzamide] as the compound, how does the IC50 [3, 4] read?
Its IC50 is no more than 200 nM.

And the IC50 [3, 5]?
Its IC50 is no more than 200 nM.

Which “% Adduct Formation” value [1] does the source give for CCN1C(=O)[C@@H](NC(=O)c2cccc(C(F)(F)F)c2)[C@@H](c2ccc(F)cc2)c2c(CNC(=O)/C=C/C(=O)OC)nn(-c3ccccc3)c21 (racemic) [Compound I-3] here?
Its value is “+++ (MS Emax % adduct formation greater than 80.0 and less than or equal to 100.0)”.

What about the IC50 [3, 4] of the same compound?
Its IC50 is no more than 200 nM.

And the IC50 [3, 5]?
The IC50 was no more than 200 nM.

C=C(CN1CCC1)C(=O)NCc1nn(-c2ccccc2)c2c1[C@H](c1ccc(F)cc1)[C@H](NC(=O)c1cccc(C(F)(F)F)c1)C(=O)N2CC (racemic) [Compound I-49, rac-N-((4R,5R)-3-((2-(azetidin-1-ylmethyl)acrylamido)methyl)-7-ethyl-4-(4-fluorophenyl)-6-oxo-1-phenyl-4,5,6,7-tetrahydro-1H-pyrazolo[3,4-b]pyridin-5-yl)-3-(trifluoromethyl)benzamide] was tested. Which IC50 [3, 4] did it give?
The IC50 was no more than 200 nM.

And the IC50 [3, 6]?
The IC50 was no more than 200 nM.

With CCN1C(=O)[C@@H](NC(=O)c2cccc(C(F)(F)F)c2)[C@@H](c2ccc(F)cc2)c2c(NC(=O)C3=CCC3)nn(-c3ccccc3)c21 (racemic) [Compound I-152] as the compound, how does the “% Adduct Formation” value [1] read?
Its value is “+ (MS Emax % adduct formation greater than or equal to 0.0 and less than or equal to 30.0)”.

What about the IC50 [3, 4] of the same compound?
Its IC50 is no more than 200 nM.

And the IC50 [3, 5]?
Its IC50 is no more than 200 nM.

With CCN1C(=O)[C@@H](NC(=O)c2cccc(C(F)(F)F)c2)[C@@H](c2ccc(F)cc2)c2c([C@@H](C)NC#N)nn(-c3ccccc3)c21 [Compound I-73, N-((4S,5S)-3-((R)-1-cyanamidoethyl)-7-ethyl-4-(4-fluorophenyl)-6-oxo-1-phenyl-4,5,6,7-tetrahydro-1H-pyrazolo[3,4-b]pyridin-5-yl)-3-(trifluoromethyl)benzamide] as the compound, how does the Category [2] read?
Its Category is “irreversible covalent”.

And the “% Adduct Formation” value [1]?
The value was “+++ (MS Emax % adduct formation greater than 80.0 and less than or equal to 100.0)”.

And the IC50 [3, 4]?
Its IC50 is no more than 200 nM.

And the IC50 [3, 5]?
The IC50 was no more than 200 nM.

Which “% Adduct Formation” value [1] does the source give for CCN1C(=O)[C@@H](NC(=O)c2cccc(C(F)(F)F)c2)[C@@H](c2ccc(F)cc2)c2c(CN(C)C#N)nn(-c3ccccc3)c21 [Compound I-92] here?
The value was “+++ (MS Emax % adduct formation greater than 80.0 and less than or equal to 100.0)”.

And the IC50 [3, 4]?
Its IC50 is no more than 200 nM.

And the IC50 [3, 5]?
The IC50 was 200 to 1000 nM.

Which results are given for CCN1C(=O)[C@@H](NC(=O)c2cccc(C(F)(F)F)c2)[C@@H](c2ccc(F)cc2)c2c(C(=O)NC3(C#N)CC3)nn(-c3ccccc3)c21 [Compound I-112]?
% Adduct Formation [1]: +++ (MS Emax % adduct formation greater than 80.0 and less than or equal to 100.0); IC50 [3, 4]: 200 to 1000 nM; IC50 [3, 6]: 1000 to 3000 nM

Which IC50 [3, 4] does the source give for C=C(CN1CCC1)C(=O)NCc1nn(-c2ccccc2)c2c1[C@@H](c1ccc(F)cc1)[C@H](NC(=O)c1cccc(C(F)(F)F)c1)C(=O)N2CC [Compound I-139] here?
Its IC50 is no more than 200 nM.

What about the IC50 [3, 5] of the same compound?
The IC50 was no more than 200 nM.

Which results are given for CCN1C(=O)[C@@H](NC(=O)c2cccc(C(F)(F)F)c2)[C@@H](c2ccc(F)cc2)c2c(CNC#N)nn(-c3ccccc3)c21 [Compound I-140, N-[(4S, 5S)-3-[(cyanoamino)methyl]-7-ethyl-4-(4-fluorophenyl)-6-oxo-1-phenyl-4,5-dihydropyrazolo[3,4-b]pyridine-5-yl]-3-(trifluoromethyl) benzamide]?
% Adduct Formation [1]: +++ (MS Emax % adduct formation greater than 80.0 and less than or equal to 100.0); IC50 [3, 4]: ≤ 200 nM; IC50 [3, 5]: ≤ 200 nM

For CCN1C(=O)[C@@H](NC(=O)c2cccc(C(F)(F)F)c2)[C@@H](c2ccc(F)cc2)c2c(C(=O)N3[C@H](C#N)C[C@H]4C[C@H]43)nn(-c3ccccc3)c21 [Compound I-277], which “% Adduct Formation” value [1] is on record?
Its value is “+++ (MS Emax % adduct formation greater than 80.0 and less than or equal to 100.0)”.

What about the IC50 [3, 4] of the same compound?
The IC50 was no more than 200 nM.

And the IC50 [3, 5]?
The IC50 was no more than 200 nM.

What does the source list for CCN1C(=O)[C@@H](NC(=O)c2cccc(C(F)(F)F)c2)[C@@H](c2ccc(F)cc2)c2c(C(=O)N3CCC[C@H]3C#N)nn(-c3ccccc3)c21 [Compound I-278]?
% Adduct Formation [1]: +++ (MS Emax % adduct formation greater than 80.0 and less than or equal to 100.0); IC50 [3, 4]: ≤ 200 nM; IC50 [3, 6]: 200 to 1000 nM

CCN1C(=O)[C@@H](NC(=O)c2cccc(C(F)(F)F)c2)[C@@H](c2ccc(F)cc2)c2c(C(=O)N3CCNCC3C#N)nn(C3CCOCC3)c21 (some centres unmarked) [Compound I-334] was tested. Which “% Adduct Formation” value [1] did it give?
Its value is “+++ (MS Emax % adduct formation greater than 80.0 and less than or equal to 100.0)”.

What about the IC50 [3, 4] of the same compound?
Its IC50 is no more than 200 nM.

What about the IC50 [3, 5] of the same compound?
Its IC50 is no more than 200 nM.

CCN1C(=O)[C@@H](NC(=O)c2cccc(C(F)(F)F)c2)[C@@H](C2CC2)c2c(C(=O)N3C[C@H](F)C[C@H]3C#N)nn(C3CCOCC3)c21 [Compound I-372] was tested. Which “% Adduct Formation” value [1] did it give?
Its value is “+++ (MS Emax % adduct formation greater than 80.0 and less than or equal to 100.0)”.

And the IC50 [3, 4]?
The IC50 was no more than 200 nM.

What about the IC50 [3, 5] of the same compound?
The IC50 was no more than 200 nM.

How did the “% Adduct Formation” value [1] turn out when CCN1C(=O)[C@@H](NC(=O)c2cccc(C(F)(F)F)c2)[C@@H](C2CC2)c2c(C(=O)N3C[C@H](OC)C[C@H]3C#N)nn(C3CCOCC3)c21 [Compound I-377] was run?
The value was “+++ (MS Emax % adduct formation greater than 80.0 and less than or equal to 100.0)”.

And the IC50 [3, 4]?
Its IC50 is no more than 200 nM.

What about the IC50 [3, 5] of the same compound?
Its IC50 is no more than 200 nM.

Which Category [2] does the source give for CCN1C(=O)[C@@H](NC(=O)c2cccc(C(F)(F)F)c2)[C@@H](C)c2c(C(=O)N3[C@H](C#N)C[C@H]4C[C@H]43)nn(C3CCOCC3)c21 [Compound I-387] here?
Its Category is “reversible covalent”.

And the residence time [2]?
Its residence time is 144 min.

What about the koff [2] of the same compound?
Its koff is 0.000116 s⁻¹.

What about the half-life [2] of the same compound?
Its half-life is 1.67 h.

What about the “% Adduct Formation” value [1] of the same compound?
The value was “+++ (MS Emax % adduct formation greater than 80.0 and less than or equal to 100.0)”.

How did the IC50 [3, 4] turn out when CCN1C(=O)[C@@H](NC(=O)c2cccc(C(F)(F)F)c2)[C@@H](C2CC2)c2c(C(=O)N3CC[C@H](OC)[C@H]3C#N)nn(C3CCOCC3)c21 [Compound I-418] was run?
The IC50 was no more than 200 nM.

What about the IC50 [3, 5] of the same compound?
The IC50 was no more than 200 nM.

With CCN1C(=O)[C@@H](NC(=O)c2cccc(C(F)(F)F)c2)[C@@H](C2CC2)c2c(C(=O)N(C)[C@H](C)C#N)nn(C3CCOCC3)c21 [Compound I-422] as the compound, how does the IC50 [3, 4] read?
The IC50 was no more than 200 nM.

And the IC50 [3, 5]?
Its IC50 is no more than 200 nM.

How did the Category [2] turn out when CCc1cccc(C(=O)N[C@@H]2C(=O)N(CC)c3c(c(C(=O)N4[C@H](C#N)C[C@H]5C[C@H]54)nn3C3CCOCC3)[C@@H]2C2CC2)c1 [Compound I-552, N-((4S,5S)-3-((1R,3S,5R)-3-cyano-2-azabicyclo[3.1.0]hexane-2-carbonyl)-4-cyclopropyl-7-ethyl-6-oxo-1-(tetrahydro-2H-pyran-4-yl)-4,5,6,7-tetrahydro-1H-pyrazolo[3,4-b]pyridin-5-yl)-3-ethylbenzamide] was run?
Its Category is “reversible covalent”.

And the residence time [2]?
The residence time was 224 min.

And the koff [2]?
The koff was 7.5e-05 s⁻¹.

What about the half-life [2] of the same compound?
Its half-life is 2.593 h.

And the IC50 [3, 4]?
Its IC50 is no more than 200 nM.

And the IC50 [3, 5]?
Its IC50 is no more than 200 nM.

What does the source list for CCN1C(=O)[C@@H](NC(=O)c2cccc(C(F)(F)F)c2)[C@@H](C2CC2)c2c(C(=O)N3CCNC[C@H]3C#N)nn(C3CCOCC3)c21 [Compound I-582]?
Category [2]: irreversible covalent; IC50 [3, 4]: ≤ 200 nM; IC50 [3, 5]: ≤ 200 nM

With CCN1C(=O)[C@@H](NC(=O)c2cccc(C(F)(F)F)c2)[C@@H](C2CC2)c2c(C(=O)N3CS(=O)(=O)C[C@H]3C#N)nn(C3CCOCC3)c21 [Compound I-617] as the compound, how does the Category [2] read?
The Category was “fast reversible”.

What about the residence time [2] of the same compound?
Its residence time is 66.3 min.

What about the koff [2] of the same compound?
Its koff is 0.000251 s⁻¹.

And the half-life [2]?
Its half-life is 0.7658 h.

And the IC50 [3, 4]?
Its IC50 is no more than 200 nM.

What about the IC50 [3, 5] of the same compound?
The IC50 was no more than 200 nM.

Which IC50 [3, 4] does the source give for CCN1C(=O)[C@@H](NC(=O)c2cccc(C(F)(F)F)c2)[C@@H](C2CCC2)c2c(C(=O)N3CCC[C@H]3C#N)nn(C3CCOCC3)c21 [Compound I-692] here?
Its IC50 is no more than 200 nM.

And the IC50 [3, 6]?
Its IC50 is 200 to 1000 nM.
